The experiment concerns LXRα and/or LXRβ. The experiment can be described thus: Co-transfection assay (LXRE luciferase reporter, CV-1 cells). It is filed as cell-based, human. Particulars: tested as described in Example 33; IC50 or EC50 for LXRα and/or LXRβ, isoform not specified; read-out: activity (IC50 or EC50 for LXR). The source says:
To measure the ability of compounds to activate or inhibit the transcriptional activity of LXR in a cell based assay, the co-transfection assay was used. It has been shown that LXR functions as a heterodimer with RXR. For the co-transfection assay, expression plasmids for LXR and RXR are introduced via transient transfection into mammalian cells along with a luciferase reporter plasmid that contains one copy of a DNA sequence that is bound by LXR-RXR heterodimers (LXRE; Willy, P. et. al. 1995). Treatment of transfected cells with an LXR agonist increases the transcriptional activity of LXR, which is measured by an increase in luciferase activity.
CV-1 African Green Monkey Kidney Cells Co-transfection expression plasmids, comprising full-length LXRα (pCMX-h LXRα, LXRβ (pCMX-hLXRβ), or RXRα (pCMX-RXR), reporter plasmid (LXREx1-Tk-Luciferase), and control (pCMX-Galactosidase expression vector) (Willey et al. Genes & Development 9 1033-1045 (1995)). Transfection reagent such as FuGENE6 (Roche). 1× Cell lysis buffer (1% Triton X 100 (J T Baker X200-07), 10% Glycerol (J T Baker M778-07), 5 mM Ditriotreitol (Quantum Bioprobe DTT03; add fresh before lysing), 1 mM EGTA (Ethylene Glycol-bis(B-Amino ethyl ether)-N,N,N′,N′-Tetracetic Acid) (Sigma E-4378), 25 mM Tricine (ICN 807420) pH 7.8) 1× Luciferase assay buffer (pH at 7.8) (0.73 mM ATP, 22.3 mM Tricine, 0.11 mM EDTA, 33.3 mM DTT) 1× Luciferrin/CoA (11 mM Luciferin, 3.05 mM Coenzyme A, 10 mM HEPES)
CV-1 cells were prepared 24 hours prior to the experiment by plating them into T-175 flasks or 500 cm^2 dishes in order to achieve 70-80% confluency on the day of the transfection. The number of cells to be transfected was determined by the number of plates to be screened. Each 384 well plate requires 1.92×10^6 cells or 5000 cells per well. DNA Transfection Reagent was prepared by mixing the required plasmid DNAs with a cationic lipid transfection reagent FuGENE6 (Roche) by following the instructions provided with the reagents. Optimal DNA amounts were determined empirically per cell line and size of vessel to be transfected. 10-12 mL of media was added to the DNA Transfection Reagent and this mixture was added to the cells after aspirating media from the T175 cm^2 flask. Cells were then incubated at least 5 hours at 37° C. to prepare screening cells.
Luciferase assay reagent was prepared by combining before use (per 10 mL): 10 mL 1× Luciferase assay buffer; 0.54 mL of 1× Luciferrin/CoA; 0.54 mL of 0.2 M Magnesium sulfate
Assay plates were prepared by dispensing 5 μL, of compound per well of a 384 well plate to achieve final compound concentration of 10 μM and no more than 1% DMSO. Media was removed from the screening cells, the cells trypsinized, harvested cells by centrifugation, counted, and plated at a density of approximately 5000 cells per well in the 384 well assay plate prepared above in a volume of about 45 μL. Assay plates containing both compounds and screening cells (50 μL in total volume) were incubated for 20 hours at 37° C.
After incubation with compounds, media was removed from the cells and lysis buffer (30 μL/well) added. After 30 minutes at ambient temperature, luciferase assay buffer (30 μL/well) was added and the assay plates read on a luminometer (PE Biosystems Northstar reader with on-board injectors, or equivalent). Plates were read immediately after addition of luciferase assay buffer.
The LXR/LNRE co-transfection assay can be used to establish the EC50/IC50 values for potency and percent activity or inhibition for efficacy. Efficacy defines the activity of a compound relative to a high control ((N-(3-((4-fluorophenyl)-(naphthalene-2-sulfonyl)amino)propyl)-2,2-dimethylpropionamide)) or a low control (DMSO/vehicle). The dose response curves are generated from an 8 point curve with concentrations differing by ½ LOG units. Each point represents the average of 4 wells of data from a 384 well plate. […]
A general note: A reporter such as luciferase makes a cellular process visible.

Experimental findings from patent publication US9000022B2 (Exelixis Patent Company LLC, priority 2005, dated 2015) are described below.

Where only a bound is given, the exact number is not on record here.

Regarding `CN1CCN(C(=O)c2cn(-c3ccc(-c4cccc(S(C)(=O)=O)c4)cc3)c(-c3c(Cl)cccc3Cl)n2)CC1` [Example 83, (2-(2,6-dichlorophenyl)-1-(3′-(methylsulfonyl)biphenyl-4-yl)-1H-imidazol-4-yl)(4-methylpiperazin-1-yl)methanone], the IC50 or EC50 (potency, activation or inhibition) fell in the range of 1000 to 10000 nM.

On to `CS(=O)(=O)c1cccc(-c2ccc(-n3cc(C(=O)NCCO)nc3-c3c(Cl)cccc3Cl)cc2)c1` [Example 84, 2-(2,6-dichlorophenyl)-N-(2-hydroxyethyl)-1-(3′-(methyl-sulfonyl)biphenyl-4-yl)-1H-imidazole-4-carboxamide], for which the IC50 or EC50 (potency, activation or inhibition) is < 1000 nM.

For `Cc1cc(-c2cccc(S(C)(=O)=O)c2)ccc1-n1cc(C(=O)NCC(F)(F)F)nc1-c1c(Cl)cccc1Cl` [Example 85, 2-(2,6-dichlorophenyl)-1-(3-methyl-3′-(methylsulfonyl)biphenyl-4-yl)-N-(2,2,2-trifluoroethyl)-1H-imidazole-4-carboxamide], the IC50 or EC50 (potency, activation or inhibition) is < 1000 nM.

For `CCN(CC)C(=O)c1cn(-c2ccc(-c3cccc(S(C)(=O)=O)c3)cc2C)c(-c2c(Cl)cccc2Cl)n1` [Example 86, 2-(2,6-dichlorophenyl)-N,N-diethyl-1-(3-methyl-3′-(methylsulfonyl)biphenyl-4-yl)-1H-imidazole-4-carboxamide], the IC50 or EC50 (potency, activation or inhibition) is < 1000 nM.

Regarding `CS(=O)(=O)c1cccc(-c2ccc(-n3cc(C(=O)NCC(F)(F)F)nc3-c3c(Cl)cccc3Cl)cc2)c1` [Example 87, 2-(2,6-dichlorophenyl)-1-(3′-(methyl-sulfonyl)biphenyl-4-yl)-4-(2,2,2-trifluoroethyl)-1H-imidazole-4-carboxamide], the IC50 or EC50 (potency, activation or inhibition) is < 1000 nM.

Consider `CS(=O)(=O)c1cccc(-c2ccc(-n3cc(C(=O)NCCF)nc3-c3c(Cl)cccc3Cl)cc2)c1` [Example 88, 2-(2,6-dichlorophenyl)-N-(2-fluoroethyl)-1-(3′-(methyl-sulfonyl)biphenyl-4-yl)-1H-imidazole-4-carboxamide], for which the IC50 or EC50 (potency, activation or inhibition) was < 1000 nM.

As to `Cc1cc(-c2cccc(S(C)(=O)=O)c2)ccc1-n1cc(C(=O)NCC(F)(F)F)nc1-c1ccccc1C(C)C` [Example 89], the IC50 or EC50 (potency, activation or inhibition) is < 1000 nM.

`CN(C)c1cccc(F)c1-c1nc(C(C)(C)O)cn1-c1ccc(-c2cccc(S(C)(=O)=O)c2)cc1` [Example 90, 2-(2-(2-(dimethylamino)-6-fluoro-phenyl)-1-(3′-(methylsulfonyl)biphenyl-4-yl)-1H-imidazol-4-yl)propan-2-ol]: the IC50 or EC50 (potency, activation or inhibition) was < 1000 nM.

For `CCS(=O)(=O)c1cccc(-c2ccc(-n3cc(C(C)(C)O)nc3-c3c(Cl)cccc3Cl)cc2)c1` [Example 91, 2-(2-(2,6-dichlorophenyl)-1-(3′-(ethylsulfonyl)biphenyl-4-yl)-1H-imidazol-4-yl)propan-2-ol], the IC50 or EC50 (potency, activation or inhibition) lay in the range of 1000 to 10000 nM.

For `CCS(=O)(=O)c1cccc(-c2ccc(-n3cc(C(C)(C)O)nc3-c3c(F)cccc3Cl)cc2)c1` [Example 92, 2-(2-(2-chloro-6-fluorophenyl)-1-(3′-(ethylsulfonyl)biphenyl-4-yl)-1H-imidazol-4-yl)propan-2-ol], the IC50 or EC50 (potency, activation or inhibition) is 1000 to 10000 nM.

On to `CCc1ccccc1-c1nc(C(C)(C)O)cn1-c1ccc(-c2cccc(S(C)(=O)=O)c2)cc1` [Example 93], for which the IC50 or EC50 (potency, activation or inhibition) was < 1000 nM.

As for `CC(C)c1ccccc1-c1nc(C(C)(C)O)cn1-c1ccc(-c2cccc(S(C)(=O)=O)c2)cc1` [Example 94, 2-(2-(2-isopropylphenyl)-1-(3′-(methylsulfonyl)biphenyl-4-yl)-1H-imidazol-4-yl)propan-2-ol], the IC50 or EC50 (potency, activation or inhibition) was < 1000 nM.

For the compound `CCS(=O)(=O)c1cccc(-c2ccc(-n3cc(C(C)(C)O)nc3-c3cccc(F)c3Cl)cc2)c1` [Example 95, 2-(2-(2-chloro-3-fluorophenyl)-1-(3′-(ethylsulfonyl)biphenyl-4-yl)-1H-imidazol-4-yl)propan-2-ol], the IC50 or EC50 (potency, activation or inhibition) is < 1000 nM.

Regarding `CCS(=O)(=O)c1cccc(-c2ccc(-n3cc(C(C)(C)O)nc3-c3ccccc3C(C)C)cc2)c1` [Example 96, 2-(1-(3′-(ethylsulfonyl)biphenyl-4-yl)-2-(2-isopropylphenyl)-1H-imidazol-4-yl)propan-2-ol], the IC50 or EC50 (potency, activation or inhibition) was < 1000 nM.

Take `CCS(=O)(=O)c1cccc(-c2ccc(-n3cc(C(C)(C)O)nc3-c3c(C)cccc3Cl)cc2)c1` [Example 97, 2-(2-(2-chloro-6-methylphenyl)-1-(3′-(ethylsulfonyl)biphenyl-4-yl)-1H-imidazol-4-yl)propan-2-ol]: the IC50 or EC50 (potency, activation or inhibition) was 1000 to 10000 nM.

In the case of `CC(C)(O)c1cn(-c2ccc(-c3ccc(CO)c(S(C)(=O)=O)c3)cc2)c(-c2cccc(Cl)c2Cl)n1` [Example 98, 2-(2-(2,3-dichlorophenyl)-1-(4′-(hydroxymethyl)-3′-(methyl-sulfonyl)biphenyl-4-yl)-1H-imidazol-4-yl)propan-2-ol], the IC50 or EC50 (potency, activation or inhibition) was < 1000 nM.

With `CC(C)(O)c1cn(-c2ccc(-c3ccc(CO)c(S(C)(=O)=O)c3)cc2)c(-c2c(Cl)cccc2Cl)n1` [Example 99, 2-(2-(2,6-dichlorophenyl)-1-(4′-(hydroxymethyl)-3′-(methyl-sulfonyl)biphenyl-4-yl)-1H-imidazol-4-yl)propan-2-ol], the IC50 or EC50 (potency, activation or inhibition) was < 1000 nM.

Take `CC(C)(O)c1cn(-c2ccc(-c3ccc(CO)c(S(C)(=O)=O)c3)cc2)c(-c2c(F)cccc2Cl)n1` [Example 100, 2-(2-(2-chloro-6-fluorophenyl)-1-(4′-(hydroxymethyl)-3′-(methyl-sulfonyl)biphenyl-4-yl)-1H-imidazol-4-yl)propan-2-ol]: the IC50 or EC50 (potency, activation or inhibition) lay within 1000 to 10000 nM.

`Cc1c(Cl)cccc1-c1nc(C(C)(C)O)cn1-c1ccc(-c2ccc(CO)c(S(C)(=O)=O)c2)cc1` [Example 101, 2-(2-(3-chloro-2-methylphenyl)-1-(4′-(hydroxymethyl)-3′-(methyl-sulfonyl)biphenyl-4-yl)-1H-imidazol-4-yl)propan-2-ol]: the IC50 or EC50 (potency, activation or inhibition) was < 1000 nM.

On to `Cc1cccc(Cl)c1-c1nc(C(C)(C)O)cn1-c1ccc(-c2ccc(CO)c(S(C)(=O)=O)c2)cc1` [Example 102, 2-(2-(2-chloro-6-methylphenyl)-1-(4′-(hydroxymethyl)-3′-(methyl-sulfonyl)biphenyl-4-yl)-1H-imidazol-4-yl)propan-2-ol], for which the IC50 or EC50 (potency, activation or inhibition) is < 1000 nM.

As for `CC(C)(O)c1cn(-c2ccc(-c3ccc(CO)c(S(C)(=O)=O)c3)cc2)c(-c2c(F)cccc2F)n1` [Example 103, 2-(2-(2,6-difluorophenyl)-1-(4′-(hydroxymethyl)-3′-(methyl-sulfonyl)biphenyl-4-yl)-1H-imidazol-4-yl)propan-2-ol], the IC50 or EC50 (potency, activation or inhibition) lay within 1000 to 10000 nM.

On to `CCS(=O)(=O)c1cccc(-c2ccc(-n3cc(C(=O)NCC(F)(F)F)nc3-c3c(Cl)cccc3Cl)c(C)c2)c1` [Example 104, 2-(2,6-dichlorophenyl)-1-(3′-(ethylsulfonyl)-3-methylbiphenyl-4-yl)-N-(2,2,2-trifluoroethyl)-1H-imidazole-4-carboxamide], for which the IC50 or EC50 (potency, activation or inhibition) was < 1000 nM.
